Data reported in the supplement of paper PMC12317010.

Experiment: collision cross section in nitrogen (drift tube, single-field); higher = larger gas-phase ion size
[1] = ion type: [M+H], ion source: APCI, ion mode: Positive
[2] = ion type: [M+H], ion source: ESI, ion mode: Positive
[3] = ion type: [M+Na], ion source: ESI, ion mode: Positive
[4] = ion type: [M-H], ion source: ESI, ion mode: Negative
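Note: chemical standards at 10 µM analysed by drift tube IMS-QTOF MS in about 3.95 torr nitrogen, mean of duplicate injections differing ≤1%, mass error below 10 ppm.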

| collision cross section in nitrogen [2] [Å²] | collision cross section in nitrogen [3] [Å²] | collision cross section in nitrogen [4] [Å²] | Compound | further results |
| --- | --- | --- | --- | --- |
| 192.4 | 195.9 |  | c1ccc(C(O[C@@H]2CCCN(CCc3ccc4c(c3)OCO4)C2)c2ccccc2)cc1 [Zamifenacin] | collision cross section in nitrogen [1]: 192.3 Å² |
|  |  | 188.9 | O=C(O)Cn1c(=O)n(Cc2ccc(Br)cc2F)c(=O)c2ccc(Cl)cc21 [Zenarestat] |  |
|  | 156.4 |  | CC(c1cc2ccccc2s1)N(O)C(N)=O (stereo unspecified) [Zileuton] |  |
|  |  | 129.1 | N#CCc1cccc(C(F)(F)F)c1 [[3-(Trifluoromethyl)phenyl]acetonitrile] |  |
| 175.5 | 178.2 | 171 | Cc1cccc(Nc2cc(Cl)nc(SCC(=O)O)n2)c1C [[4-Chloro-6-(2,3-xylidino)-2-pyrimidinylthio]acetic acid] | collision cross section in nitrogen [1]: 175.6 Å² |
| 160.7 | 185.7 |  | O=c1cc(-c2ccccc2)oc2c1ccc1ccccc12 [alpha-Naphthoflavone] | collision cross section in nitrogen [1]: 161.7 Å² |
|  |  | 151.5 | N[C@H](Cc1c[nH]c2ccccc12)C(=O)O [d-Tryptophan] |  |
|  |  | 151.6 | N[C@@H](Cc1c[nH]c2ccccc12)C(=O)O [l-Tryptophan] |  |
|  |  | 173.8 | CCCCCCCCCCCCc1ccccc1O [n-Dodecylphenol] |  |
| 194.5 | 200.6 | 198 | Cc1cc(C2(c3cc(C)c(O)cc3C)OS(=O)(=O)c3ccccc32)c(C)cc1O [p-Xylenol blue] | collision cross section in nitrogen [1]: 194.4 Å² |
|  |  | 148.4 | CCC(C)OC(=O)c1ccc(O)cc1 (stereo unspecified) [sec-Butylparaben] |  |
|  |  | 151.6 | CC(C)(C)OC(=O)c1ccccc1C(=O)O [tert-Butyl hydrogen phthalate] |  |

The remaining lines, values behind:

| Compound | collision cross section in nitrogen [2] [Å²] | collision cross section in nitrogen [3] [Å²] | collision cross section in nitrogen [4] [Å²] | further results |
| --- | --- | --- | --- | --- |
| C[C@H]1CCCC(=O)CCC/C=C/c2cc(O)cc(O)c2C(=O)O1 [Zearalenone] |  |  | 177.5 |  |
| CCC(C)(NC(=O)c1cc(Cl)c(C)c(Cl)c1)C(=O)CCl (stereo unspecified) [Zoxamide] | 175.9 | 188 |  |  |
| OC[C@H]1O[C@@H]2O[C@H]3[C@H](O)[C@@H](O)[C@@H](O[C@H]4[C@H](O)[C@@H](O)[C@@H](O[C@H]5[C@H](O)[C@@H](O)[C@@H](O[C@H]6[C@H](O)[C@@H](O)[C@@H](O[C@H]7[C@H](O)[C@@H](O)[C@@H](O[C@H]1[C@H](O)[C@H]2O)O[C@@H]7CO)O[C@@H]6CO)O[C@@H]5CO)O[C@@H]4CO)O[C@@H]3CO [alpha-Cyclodextrin] | 277.8 | 278.5 | 286.4 |  |
| c1csc(-c2ccc(-c3cccs3)s2)c1 [alpha-Terthiophene] |  |  |  | collision cross section in nitrogen (ion type: [M+], ion source: APCI, ion mode: Positive): 146.4 Å² |
| O=C1NC(=O)[C@@H]2CC=CC[C@H]12 [cis-1,2,3,6-Tetrahydrophthalimide] |  |  | 133 |  |
| OC[C@H]1O[C@@H]2O[C@H]3[C@H](O)[C@@H](O)[C@@H](O[C@H]4[C@H](O)[C@@H](O)[C@@H](O[C@H]5[C@H](O)[C@@H](O)[C@@H](O[C@H]6[C@H](O)[C@@H](O)[C@@H](O[C@H]7[C@H](O)[C@@H](O)[C@@H](O[C@H]8[C@H](O)[C@@H](O)[C@@H](O[C@H]9[C@H](O)[C@@H](O)[C@@H](O[C@H]1[C@H](O)[C@H]2O)O[C@@H]9CO)O[C@@H]8CO)O[C@@H]7CO)O[C@@H]6CO)O[C@@H]5CO)O[C@@H]4CO)O[C@@H]3CO [gamma-Cyclodextrin] |  | 318.1 | 314.1 |  |
| CC1(C)[C@H](/C=C(\Cl)C(F)(F)F)[C@@H]1C(=O)O[C@@H](C#N)c1cccc(Oc2ccccc2)c1 [lambda-Cyhalothrin] |  | 190.4 |  |  |
| CCCCCOC(=O)CCCCC [n-Amyl caproate] |  |  | 151.6 |  |
| Cc1cc(N=Nc2ccccc2C)ccc1N [o-Aminoazotoluene] | 156 |  | 157.3 | collision cross section in nitrogen [1]: 155.9 Å² |
| Cc1ccccc1O [o-Cresol] |  |  | 120.4 |  |
| COc1ccc(N)cc1 [p-Anisidinium chloride] | 133.2 |  |  |  |
| CC(C)(C)OC(=O)c1ccc(O)cc1 [tert-Butyl 4-hydroxybenzoate] |  |  | 148.2 |  |
| CCCCCCCC/C=C/CCCCCCCC(=O)OCC(O)CO (stereo not drawn) [trans-Monoelaidin] |  | 199 |  |  |
